From PMC9942120 (iScience, 2023) come the findings set out here.

Holding throughout (assay): direct LC-MS/MS profiling of modified tryptic peptides
Common to all, as to assay type: cell-based

For one assay, the target named is T1, UBE2O (Homo sapiens, UniProt Q9C0C9).
T1 sequence (Q9C0C9 1-1292): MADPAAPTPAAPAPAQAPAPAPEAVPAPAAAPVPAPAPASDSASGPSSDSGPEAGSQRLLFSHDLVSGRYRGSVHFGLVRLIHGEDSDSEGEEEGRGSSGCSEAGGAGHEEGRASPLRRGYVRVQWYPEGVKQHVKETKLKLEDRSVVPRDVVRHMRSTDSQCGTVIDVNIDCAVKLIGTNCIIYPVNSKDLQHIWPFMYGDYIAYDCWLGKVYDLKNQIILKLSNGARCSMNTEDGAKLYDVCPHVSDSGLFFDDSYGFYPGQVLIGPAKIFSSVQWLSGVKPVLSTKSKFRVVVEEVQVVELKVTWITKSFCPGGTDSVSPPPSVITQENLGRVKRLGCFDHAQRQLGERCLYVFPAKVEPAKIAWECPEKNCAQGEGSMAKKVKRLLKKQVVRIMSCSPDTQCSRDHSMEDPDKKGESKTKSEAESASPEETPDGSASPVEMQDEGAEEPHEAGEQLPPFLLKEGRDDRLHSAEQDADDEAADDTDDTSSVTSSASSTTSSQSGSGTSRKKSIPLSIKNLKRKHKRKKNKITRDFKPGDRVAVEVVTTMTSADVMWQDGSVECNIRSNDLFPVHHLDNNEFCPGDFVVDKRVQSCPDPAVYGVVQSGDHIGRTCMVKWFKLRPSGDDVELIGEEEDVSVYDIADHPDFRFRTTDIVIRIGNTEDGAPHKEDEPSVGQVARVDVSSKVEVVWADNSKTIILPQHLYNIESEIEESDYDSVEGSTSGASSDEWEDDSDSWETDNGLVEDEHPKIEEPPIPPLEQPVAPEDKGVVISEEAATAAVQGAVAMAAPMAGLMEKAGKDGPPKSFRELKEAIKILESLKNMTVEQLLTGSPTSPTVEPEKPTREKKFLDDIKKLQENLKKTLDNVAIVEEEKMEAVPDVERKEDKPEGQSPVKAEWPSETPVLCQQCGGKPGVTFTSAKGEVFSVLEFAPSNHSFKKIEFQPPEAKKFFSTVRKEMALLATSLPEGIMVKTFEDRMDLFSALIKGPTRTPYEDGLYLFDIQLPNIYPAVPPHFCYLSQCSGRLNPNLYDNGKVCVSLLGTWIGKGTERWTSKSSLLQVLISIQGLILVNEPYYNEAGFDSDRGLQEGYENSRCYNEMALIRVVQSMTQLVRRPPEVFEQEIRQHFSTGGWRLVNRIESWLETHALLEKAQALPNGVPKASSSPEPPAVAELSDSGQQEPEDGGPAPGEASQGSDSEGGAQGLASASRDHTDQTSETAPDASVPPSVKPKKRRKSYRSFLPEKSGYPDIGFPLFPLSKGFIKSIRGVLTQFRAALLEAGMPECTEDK
Particulars: covalent at Cys370; H358 cells, […] AMG510, […] h (methods print […] h).

The next assay concerns the target RPE (Homo sapiens, UniProt Q96AT9). Particulars: covalent at Cys5; H358 cells, […] AMG510, […] h (methods print […] h).
Another assay deals with T2, RAE1 (Homo sapiens, UniProt P78406).
T2 sequence (P78406 1-368): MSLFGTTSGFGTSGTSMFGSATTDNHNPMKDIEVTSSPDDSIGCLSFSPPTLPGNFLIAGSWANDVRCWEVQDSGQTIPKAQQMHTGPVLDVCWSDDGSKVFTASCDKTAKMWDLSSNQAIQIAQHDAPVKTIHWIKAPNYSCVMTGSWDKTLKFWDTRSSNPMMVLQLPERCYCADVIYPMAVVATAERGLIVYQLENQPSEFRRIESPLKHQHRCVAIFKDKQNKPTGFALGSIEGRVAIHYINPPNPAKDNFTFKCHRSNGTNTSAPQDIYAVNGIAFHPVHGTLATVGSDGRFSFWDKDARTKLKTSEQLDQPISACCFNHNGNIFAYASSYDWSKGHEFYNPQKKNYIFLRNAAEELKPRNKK
Particulars: covalent at Cys106; H358 cells, […] AMG510, […] h (methods print […] h).

The target in the next assay is T3, PLOD3 (Homo sapiens, UniProt O60568).
T3 sequence (O60568 25-738): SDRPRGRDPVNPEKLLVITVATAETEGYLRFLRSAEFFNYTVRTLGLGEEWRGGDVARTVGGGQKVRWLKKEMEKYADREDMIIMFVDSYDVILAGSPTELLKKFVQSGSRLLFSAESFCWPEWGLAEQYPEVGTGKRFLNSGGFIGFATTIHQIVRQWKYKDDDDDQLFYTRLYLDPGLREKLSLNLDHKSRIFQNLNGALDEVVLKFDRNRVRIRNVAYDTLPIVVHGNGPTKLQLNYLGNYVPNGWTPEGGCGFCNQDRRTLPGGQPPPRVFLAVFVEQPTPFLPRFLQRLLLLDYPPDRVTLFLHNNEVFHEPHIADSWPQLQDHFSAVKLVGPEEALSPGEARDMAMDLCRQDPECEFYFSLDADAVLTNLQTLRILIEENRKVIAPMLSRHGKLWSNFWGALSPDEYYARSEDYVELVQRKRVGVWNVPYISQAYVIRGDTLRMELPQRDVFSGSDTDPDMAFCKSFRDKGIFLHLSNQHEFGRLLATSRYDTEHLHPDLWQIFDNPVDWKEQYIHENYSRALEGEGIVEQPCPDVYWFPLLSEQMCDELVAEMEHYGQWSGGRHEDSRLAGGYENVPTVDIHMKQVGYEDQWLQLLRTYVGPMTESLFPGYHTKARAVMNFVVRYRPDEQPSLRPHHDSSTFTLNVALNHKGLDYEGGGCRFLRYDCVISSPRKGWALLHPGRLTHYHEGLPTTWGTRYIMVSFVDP
Particulars: covalent at Cys691; H358 cells, […] AMG510, […] h (methods print […] h).

Another assay concerns the target T4, HMOX2 (Homo sapiens, UniProt P30519).
T4 sequence (P30519 2-316): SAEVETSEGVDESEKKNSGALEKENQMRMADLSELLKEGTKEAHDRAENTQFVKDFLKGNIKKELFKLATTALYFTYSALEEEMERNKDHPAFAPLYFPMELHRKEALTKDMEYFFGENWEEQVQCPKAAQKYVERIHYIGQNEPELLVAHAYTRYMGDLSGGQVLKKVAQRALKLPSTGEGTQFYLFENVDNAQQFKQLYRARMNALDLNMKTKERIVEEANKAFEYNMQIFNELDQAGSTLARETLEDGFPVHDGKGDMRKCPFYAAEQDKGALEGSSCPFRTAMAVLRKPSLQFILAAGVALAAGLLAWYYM
Particulars: covalent at Cys282; H358 cells, […] AMG510, […] h (methods print […] h).

Sequence of RPE (Q96AT9 2-228): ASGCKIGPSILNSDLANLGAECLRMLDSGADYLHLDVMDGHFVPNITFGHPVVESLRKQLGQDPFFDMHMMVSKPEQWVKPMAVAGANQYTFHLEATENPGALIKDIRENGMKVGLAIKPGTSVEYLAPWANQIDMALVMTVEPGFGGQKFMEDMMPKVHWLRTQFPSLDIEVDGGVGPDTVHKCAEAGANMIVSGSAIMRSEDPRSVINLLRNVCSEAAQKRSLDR

With `C=CC(=O)N1CCN(c2nc(=O)n(-c3c(C)ccnc3C(C)C)c3nc(-c4c(O)cccc4F)c(F)cc23)[C@@H](C)C1` [AMG510], the “direct LC-MS/MS profiling of modified tryptic peptides” value is “They included enzymes (PLOD3 C691, RPE C5, SPTLC2 C99, UBE2O C370, and TK1 C3)” at UBE2O; “They included enzymes (PLOD3 C691, RPE C5, SPTLC2 C99, UBE2O C370, and TK1 C3)” at RPE; “transporters (RAE1 C106, S100A16C4, VDAC2 C91 and C225)” on RAE1; “They included enzymes (PLOD3 C691, RPE C5, SPTLC2 C99, UBE2O C370, and TK1 C3)” at PLOD3; “off-targets that were identified in previous studies (RTN4 C1101 and HMOX2 C282)” on HMOX2.
